Test results reported in patent US11642309B2, “Aqueous compositions comprising bilastine and mometasone” (FAES FARMA, S.A., priority 2017, dated 2023).
Values after ≈ are worked out from the molar mass of the structure shown.

Tests used:
Type in all cases: physicochemical
[1] = Solubility of bilastine and mometasone furoate monohydrate in formulations with HPBCD 12.5 to 100 mg/mL at pH 4.3, 4.6, 4.9 (Example 3); conditions: for solubility: thermodynamic from solid
Experimental: (§1) HPLC measurements were conducted using a HPLC-HCLASS Chromatographic System with PDA or UV-VIS detector equipped with a Xbridge Shield RP18 3.5 μm […] Column. Mobile phases were ammonium bicarbonate (10 mM pH 9, FLUKA), acetonitrile (FISCHER) and methanol ([…]). Samples were submitted to Acrodisc 32 mm Sryinge Filters with 1.2 μm Supor Membrane, Batch: 18-1077 (PALL).
Six different formulations (with mometasone furoate monohydrate and the rest of excipients as defined in example 2) were prepared (see table below). The six formulations had amounts of HPBCD from 12.5 to 100 mg/mL. Then, in each of them an excessive amount of bilastine was added and the maximum solubility was tested. Furthermore, the percentage of the mometasone furoate dissolved was also tested. All the measurements were conducted at time 0.

[2] = Solubility of bilastine in water; conditions: solubility depends on the pH
[3] = Solubility of bilastine and mometasone furoate monohydrate in Kolliphor RH40 formulations (Example 4)
Experimental: To this end, aqueous formulations of Kolliphor RH40 at concentrations 0, 5, 15, 25 and 50 mg/mL and at pH values of 3.7, 4.0, 4.3 and 4.6 were prepared.
Additionally, 0.5 mg/mL of mometasone furoate monohydrate was added to each formulation. The influence of Kolliphor RH40 in bilastine solubility is represented in FIG. 3 in graphs A and B therein. It is shown that, at pH values above 4.3, Kolliphor RH40 at a concentration of 50 mg/mL is insufficient in solubilizing 8 mg/mL of Bilastine (FIG. 3 in graph A therein. In addition, at the concentration of 50 mg/mL and pH of 4.3, Kolliphor RH40 solubilizes more than 10% of the added mometasone furoate monohydrate (FIG. 3 in graph B therein.

[4] = Solubility of bilastine with α-cyclodextrin (FIG. 2); conditions: aqueous composition with α-cyclodextrin, aqueous with cosolvent or surfactant or cyclodextrin; 5 wt. % α-cyclodextrine instead of HPBCD, pH 4.5, FIG. 2
[5] = Mometasone impurities under forced stability conditions, increasing HPBCD (Example 7); conditions: pH 4.6, 50° C., 3 months
Experimental: The percentage of Mometasone was calculated-using the following formula: […]
The percentage of Mometasone degradation products was calculated using the following formula: […]
To evaluate the influence that the cyclodextrin HPBCD had on the impurities of mometasone, formulations similar to the one described in example 1 (see table therein) were studied at pH 4.6 for increasing cyclodextrin concentrations of from 25 to 95 mg/mL. The formulations were submitted to forced stability conditions at 50° C. for a 3-month period. The results were obtained from HPLC measurements.

[6] = Stability of formulas with HPBCD in stability chambers (Example 6); conditions: HPBCD 25 mg/mL
Experimental: as §1
The three formulas (bilastine at a concentration of 2, 4 and 8 mg/mL) were placed in stability chambers wherein the conditions were 25° C./40% RH and 40° C./25% RH for the duration of 6 or 12 months.

[7] = Stability of formulation with Kolliphor RH40 in stability chambers (Example 5); conditions: Kolliphor RH40 50 mg/mL formulation
Experimental: as §1
In the formulation of the present example, sorbitan monooleate acts as an antifoam agent. A batch manufactured according to the table above was prepared, packaged and placed in stability chambers wherein the conditions were 25° C./40% RH and 40° C./25% RH for the duration of 3 months.

With CCOCCn1c(C2CCN(CCc3ccc(C(C)(C)C(=O)O)cc3)CC2)nc2ccccc21 [Bilastine, 2-[4-(2-{4-[1-(2-ethoxyethyl)-1H-benzimidazol-2-yl]-1-piperidinyl}ethyl)phenyl]-2-methylpropanoic acid] the solubility ([1]; aqueous with cosolvent or surfactant or cyclodextrin) was at least 8000 µg/mL, the solubility ([1]; pH 4.6, aqueous with cosolvent or surfactant or cyclodextrin) was about 10000 µg/mL (≈ 21.6 mM) and the solubility in water [2] was “slightly soluble”. The solubility ([3]; aqueous with cosolvent or surfactant or cyclodextrin, thermodynamic from solid) was under 8000 µg/mL and the solubility [4] was under 1000 µg/mL.

In the case of C[C@@H]1C[C@H]2[C@@H]3CCC4=CC(=O)C=C[C@]4(C)[C@@]3(Cl)[C@@H](O)C[C@]2(C)[C@@]1(OC(=O)c1ccco1)C(=O)CCl.O [Mometasone Furoate monohydrate, Mometasone furoate monohydrate], the “solubility of mometasone furoate” value ([1]; HPBCD 75 mg/ml (7.5 wt. %), FIG. 1 graph B) is reported as “around 4 mg/ml”, the “Dissolved mometasone (%)” value ([5]; HPBCD 25 mg/mL) is reported as 0.7% and the “Mometasone impurities (%)” value ([5]; HPBCD 25 mg/mL) is reported as 0.2%. For the same molecule, the “Dissolved mometasone (%)” value ([5]; HPBCD 50 mg/mL) was 3.0%, the “Mometasone impurities (%)” value ([5]; HPBCD 50 mg/mL) was 0.7% and the “Dissolved mometasone (%)” value ([5]; HPBCD 65 mg/mL) was 5.2%. For the same molecule, the “Mometasone impurities (%)” value ([5]; HPBCD 65 mg/mL) was 1.0%, the “Dissolved mometasone (%)” value ([5]; HPBCD 85 mg/mL) was 7.2% and the “Mometasone impurities (%)” value ([5]; HPBCD 85 mg/mL) was 1.3%. The “Dissolved mometasone (%)” value ([5]; HPBCD 95 mg/mL) was 10.5%, the “Mometasone impurities (%)” value ([5]; HPBCD 95 mg/mL) was 1.9% and the “Total degradation products % w/w” value ([6]; formula Bilastine 2 mg/mL, 25° C. 40% RH 9 months) was 0.05% w/w. For the same molecule, the “Total degradation products % w/w” value ([6]; formula Bilastine 2 mg/mL, 25° C. 40% RH 12 months) was 0.05% w/w, the “Total degradation products % w/w” value ([6]; formula Bilastine 2 mg/mL, 40° C. 25% RH 3 months) was 0.15% w/w and the “Total degradation products % w/w” value ([6]; formula Bilastine 2 mg/mL, 40° C. 25% RH 6 months) was 0.20% w/w. For the same molecule, the “Total degradation products % w/w” value ([6]; formula Bilastine 2 mg/mL, T0) was 0.05% w/w, the “Total degradation products % w/w” value ([6]; formula Bilastine 4 mg/mL, 25° C. 40% RH 9 months) was 0.05% w/w and the “Total degradation products % w/w” value ([6]; formula Bilastine 4 mg/mL, 25° C. 40% RH 12 months) was 0.05% w/w. The “Total degradation products % w/w” value ([6]; formula Bilastine 4 mg/mL, 40° C. 25% RH 3 months) was 0.14% w/w, the “Total degradation products % w/w” value ([6]; formula Bilastine 4 mg/mL, 40° C. 25% RH 6 months) was 0.18% w/w and the “Total degradation products % w/w” value ([6]; formula Bilastine 4 mg/mL, T0) was 0.05% w/w. The “Total degradation products % w/w” value ([6]; formula Bilastine 8 mg/mL, 25° C. 40% RH 9 months) was 0.05% w/w, the “Total degradation products % w/w” value ([6]; formula Bilastine 8 mg/mL, 25° C. 40% RH 12 months) was 0.05% w/w and the “Total degradation products % w/w” value ([6]; formula Bilastine 8 mg/mL, 40° C. 25% RH 3 months) was 0.14% w/w. For the same molecule, the “Total degradation products % w/w” value ([6]; formula Bilastine 8 mg/mL, 40° C. 25% RH 6 months) was 0.17% w/w, the “Total degradation products % w/w” value ([6]; formula Bilastine 8 mg/mL, T0) was 0.05% w/w and the “added mometasone furoate monohydrate solubilized” value ([3]; Kolliphor RH40 50 mg/mL, pH 4.3, 0.5 mg/mL added, FIG. 3 graph B) was “more than 10%”. The “Total degradation products % w/w” value ([7]; 25° C./40% RH, 3 months) was 0.31% w/w, the “Total degradation products % w/w” value ([7]; 40° C./25% RH, 3 months) was 0.33% w/w and the “Total degradation products % w/w” value ([7]; T0) was 0.15% w/w.
